# Values quoted from earlier work in article PMC9045302, “The Characterization of an Efficient Phenylpyruvate Decarboxylase KDC4427, Involved in 2-Phenylethanol and IAA Production from Bacterial Enterobacter sp. CGMCC 5087” (Microbiology Spectrum, 2022).
# Experiments:
# KDC4427 [1] = biological target: T1, KDC4427 (Enterobacter sp. CGMCC 5087, UniProt Z9M8L3KFT6); assay: coupled assay with yeast alcohol dehydrogenase, NADH at […] nm; format: biochemical; details: pH 7.0, 37°C, 0.2 mM ThDP, 0.1 mM MgSO4; footnote: authors' own data cited from their unpublished paper
# T1 construct: tetramer stated from homology model; ThDP/Mg2+ dependent
# KDC4427 [2] = biological target: T1, KDC4427; assay: as above; format: biochemical; details: pH 7.0, 37°C, 0.2 mM ThDP, 0.1 mM MgSO4; footnote: authors' own data cited from their unpublished paper; remark: listed apart in the source
Structure (SMILES),Km (KDC4427 [1]) [mM],Km (KDC4427 [2]) [mM]
O=C(O)C(=O)Cc1c[nH]c2ccccc12 [Indole-3-pyruvic acid],0.015 ± 0.002,
O=C(O)C(=O)Cc1ccccc1 [Phenylpyruvic acid],,0.6 ± 0.02
